One data set can be described thus: clinical. Particulars: in vivo. The procedure: (§1) Six healthy, non-obese, fasting subjects each received, on different days 0, 6, 12.5, 25 or 50 g of glucose (Glucola) in a total volume of 100 ml.
Following a protocol approved by the Massachusetts Institute of Technology Committee on the Use of Humans as Experimental Subjects, 6 healthy volunteer outpatients, aged 25-33 years, participated in the study; 3 were males and 3 females. Mean weight was 60 kg for the women and 70 for the men; all subjects were within 10% of their ideal body weight as determined by Metropolitan Life Insurance Company tables. […] Subjects were asked to take meals rich in carbohydrate content (about 300 g/day) for 3 days before beginning the study. On 5 separate days, each subject fasted from 8 p.m. until 9 the next morning and then received a load of 0, 6, 12.5, 25 or 50 g of glucose (caffeine-free glucola) dissolved in water in a total volume of 100 ml; the order of doses was randomized. […] Blood was collected in heparanized tubes; after centrifugation plasma was stored at -20° C. until analyzed. […] Glucose was analyzed spectrophotometrically after reaction with O-toluidine in hot acidic acid (Sigma Bulletin #635;15). Insulin was measured using a commercial radioimmunoassay kit by a double antibody method (Bio-RIA, Louisville, Ky.). Plasma tryptophan was measured fluorometrically on 20 μl plasma aliquots by the method of Denckla and Dewey, J. Lab. […] Branched-chain amino acids and aromatic amino acids were measured in 500 μl aliquots of plasma, deproteinized with sulfosalicylic acid, using a Beckman amino acid analyzer (Beckman Instruments, Palo Alto, Calif., Model 119C).
Data, given as means ±SE errors, were analyzed by two-way analysis of variance; factors compared were dose and time. […] Areas under the curves were evaluated by the method of trapezoid approximation. […] Amino acid concentrations after treatments for each subject were also expressed as a percentage of that day's pretreatment levels; mean percent changes were then calculated for each treatment and time interval.

Data set [1] in a line: Plasma insulin after glucose ingestion, radioimmunoassay (Example I). Type of data set: in vivo, human. The protocol: as §1
Following a protocol approved by the Massachusetts Institute of Technology Committee on the Use of Humans as Experimental Subjects, 6 healthy volunteer outpatients, aged 25-33 years, participated in the study; 3 were males and 3 females. Mean weight was 60 kg for the women and 70 for the men; all subjects were within 10% of their ideal body weight as determined by Metropolitan Life Insurance Company tables. […] Subjects were asked to take meals rich in carbohydrate content (about 300 g/day) for 3 days before beginning the study. On 5 separate days, each subject fasted from 8 p.m. until 9 the next morning and then received a load of 0, 6, 12.5, 25 or 50 g of glucose (caffeine-free glucola) dissolved in water in a total volume of 100 ml; the order of doses was randomized. Venous blood samples were drawn from the antecubital vein through an indwelling catheter at 0, 60 and 120 min for all doses and additionally at 30 and 180 min for the 12.5, 25 and 50 g doses. Blood was collected in heparanized tubes; after centrifugation plasma was stored at -20° C. until analyzed. […] Glucose was analyzed spectrophotometrically after reaction with O-toluidine in hot acidic acid (Sigma Bulletin #635;15). Insulin was measured using a commercial radioimmunoassay kit by a double antibody method (Bio-RIA, Louisville, Ky.). Plasma tryptophan was measured fluorometrically on 20 μl plasma aliquots by the method of Denckla and Dewey, J. Lab. Clin. Med. 69: 160-169, 1967, as modified by Lehman, Scand. J. Clin. Lab. Invest. 28: 49-55, 1971. Branched-chain amino acids and aromatic amino acids were measured in 500 μl aliquots of plasma, deproteinized with sulfosalicylic acid, using a Beckman amino acid analyzer (Beckman Instruments, Palo Alto, Calif., Model 119C).
Data, given as means ±SE errors, were analyzed by two-way analysis of variance; factors compared were dose and time. The Scheffe test was employed to test the statistical significance of differences; p<0.05 was considered significant. Areas under the curves were evaluated by the method of trapezoid approximation. Student tests for paired data were used to evaluate the significance of changes in individual amino acids. Amino acid concentrations after treatments for each subject were also expressed as a percentage of that day's pretreatment levels; mean percent changes were then calculated for each treatment and time interval.

With `O=C[C@H](O)[C@@H](O)[C@H](O)[C@H](O)CO` [Glucose, glucose], the “Mean plasma glucose concentration” value in “clinical” (human) came out at 83±2.2 mg %. Moreover, in “clinical” (human, po, Mean plasma glucose concentration), the concentration at 0.5 h is 1050 ± 86 µg/mL. The “Time for plasma glucose to return to baseline” value in the data set “clinical” lay within 60 to 120 min. Also, the “Elevation in insulin, 50-g vs 25-g dose” value in data set [1] (50 g vs 25 g glucose) is given as “greater elevation in insulin than the 25-g dose in 4 of the 6 subjects”. In addition, the Insulin levels entry in data set [1] (30 min after 12.5, 25 or 50 g of glucose) is on record as “significantly elevated”. The Mean insulin concentration in data set [1] (before ingestion (baseline)) came to 9±0.9 μU/ml; in data set [1] (glucose 12.5 g, 30 min) it was 21.3±3.8 μU/ml; in data set [1] (glucose 25 g, 30 min) it was 44±5.0 μU/ml; in data set [1] (glucose 50 g, 30 min), 58±6.9 μU/ml.

For the origin of these results see patent US4542123A (Massachusetts Institute of Technology, priority 1982, dated 1985).
